# Data as given in publication PMC6073332 (2018).
# What was measured:
# [1] = tested on: duplex III (= I + II) (DNA, duplex) CTCTCTTGTCTTCTC/GAGAAGACAAGAGAG; assay: CD; details: Na+ 100 mM (NaClO4) in incubation stock, 50 mM TEAA pH 7, 310 K, 24 h, diluted to 5 μM duplex, covalent
# [2] = tested on: single strand II (complement of I) (DNA, single strand) GAGAAGACAAGAGAG; assay: HPLC-ESI-MS; details: 50 mM TEAA pH 7, 310 K, 24 h; Ru/II 1.0 or 3.0; covalent
# [3] = tested on: single strand I (-T7G8T9-) (DNA, single strand) CTCTCTTGTCTTCTC; assay: HPLC-UV peak areas, two-step stoichiometric fit; details: none listed (50 mM triethylammonium acetate buffer only); 50 mM TEAA pH 7, 310 K, 24 h; covalent; site 1 of 2 (G8)
# [4] = tested on: duplex III (= I + II) (DNA, duplex) CTCTCTTGTCTTCTC/GAGAAGACAAGAGAG; assay: HPLC-ESI-MS (denaturing); details: Na+ 100 mM (NaClO4); 50 mM TEAA pH 7, 310 K, 48 h; Ru/III 1.0 or 6.0; covalent
# [5] = tested on: single strand IV (-T7G8A9-) (DNA, single strand) CTCTCTTGACTTCTC; assay: HPLC-UV peak areas, two-step stoichiometric fit; details: none listed (50 mM triethylammonium acetate buffer only); 50 mM TEAA pH 7, 310 K, 24 h; covalent; site 1 of 2 (G8)
# [6] = tested on: single strand V (-C7G8A9-) (DNA, single strand) CTCTCTCGACTTCTC; assay: HPLC-UV peak areas, two-step stoichiometric fit; details: none listed (50 mM triethylammonium acetate buffer only); 50 mM TEAA pH 7, 310 K, 24 h; covalent; site 1 of 2 (G8)
# [7] = tested on: single strand VI (-A7G8C9-) (DNA, single strand) CTCTCTAGCCTTCTC; assay: HPLC-UV peak areas, two-step stoichiometric fit; details: none listed (50 mM triethylammonium acetate buffer only); 50 mM TEAA pH 7, 310 K, 24 h; covalent; site 1 of 2 (G8)
# [8] = tested on: single strand VII (-C7G8C9-) (DNA, single strand) CTCTCTCGCCTTCTC; assay: HPLC-UV peak areas, two-step stoichiometric fit; details: none listed (50 mM triethylammonium acetate buffer only); 50 mM TEAA pH 7, 310 K, 24 h; covalent; site 1 of 2 (G8)
# [9] = tested on: single strand VIII (-A7G8T9-) (DNA, single strand) CTCTCTAGTCTTCTC; assay: HPLC-UV peak areas, two-step stoichiometric fit; details: none listed (50 mM triethylammonium acetate buffer only); 50 mM TEAA pH 7, 310 K, 24 h; covalent; site 1 of 2 (G8)
# [10] = tested on: single strand IX (-A7G8A9-) (DNA, single strand) CTCTCTAGACTTCTC; assay: HPLC-UV peak areas, two-step stoichiometric fit; details: none listed (50 mM triethylammonium acetate buffer only); 50 mM TEAA pH 7, 310 K, 24 h; covalent; site 1 of 2 (G8)
Compound,binding [2],K1 [3],binding [4],other results
N.N.[Cl-].[Cl-].[Pt+2],–,–,–,binding ([1]; Pt/III 6.0): yes
Cc1ccc(C(C)C)cc1.NCCN.[Cl-].[Ru+2],yes,3.94 ± 0.24 × 10^4 M^−1,–,binding ([1]; Ru/III up to 6.0): yes

# The next lines start with results.
binding [2],K1 [3],binding [4],Compound,other results
yes,2.52 ± 0.13 × 10^4 M^−1,–,NCCN.[Cl-].[Ru+2].c1ccc2c(c1)CCC2,–
yes,0.79 ± 0.04 × 10^4 M^−1,yes,NCCN.[Cl-].[Ru+2].c1ccccc1,–
yes,2.92 ± 0.46 × 10^4 M^−1,yes,NCCN.[Cl-].[Ru+2].c1ccc(-c2ccccc2)cc1,K1 [5]: 3.99 ± 0.31 × 10^4 M^−1; K1 [6]: 2.81 ± 0.55 × 10^4 M^−1; K1 [7]: 3.33 ± 0.37 × 10^4 M^−1; K1 [8]: 4.75 ± 0.53 × 10^4 M^−1; K1 [9]: 5.74 ± 0.44 × 10^4 M^−1; K1 [10]: 3.61 ± 0.39 × 10^4 M^−1
